The text below walks through data of US7576222B2, “Alkynyl-containing tryptophan derivative inhibitors of TACE/matrix metalloproteinase” (priority 2004, dated 2009).

The target in one experiment is T1, catalytic domain of the recombinant TACE protein (Homo sapiens, UniProt P78536).
T1 construct: The catalytic domain of the recombinant TACE protein was expressed and purified; made in house
T1 sequence (P78536 223-474 limits assumed): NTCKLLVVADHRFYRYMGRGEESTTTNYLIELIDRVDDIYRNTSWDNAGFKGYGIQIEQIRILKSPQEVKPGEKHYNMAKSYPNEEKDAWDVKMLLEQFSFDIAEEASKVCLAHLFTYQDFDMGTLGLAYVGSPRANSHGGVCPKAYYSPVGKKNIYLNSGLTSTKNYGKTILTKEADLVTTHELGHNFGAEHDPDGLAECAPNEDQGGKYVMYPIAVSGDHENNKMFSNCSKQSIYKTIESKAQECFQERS
The experiment can be described thus: TACE FRET assay using TACE cat. In kind it is biochemical.
Conditions: not given
A digest of the protocol: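 Initial fluorescence rate of Abz-[sequence]-Dpa pro-TNF-α peptide cleavage (substrate from 2 mM stock) read after adding substrate to enzyme (1 ug/ml) preincubated 10 min, room temperature, with inhibitor.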
A word on the IC50: it is the midpoint of a concentration-inhibition curve. Consider `CC#CCOc1ccc(S(=O)(=O)N[C@@H](Cc2cn(CC3CCC3)c3ccc(OC)cc23)C(=O)O)cc1` [Example 69, N-{[4-(but-2-ynyloxy)phenyl]sulfonyl}-1-(cyclobutylmethyl)-5-methoxytryptophan], for which the half-maximal inhibitory concentration (IC50) turned out to be 1190 nM.

`CC#CCOc1ccc(S(=O)(=O)N[C@@H](Cc2c(C)n(Cc3ccccc3C(F)(F)F)c3ccc(OC)cc23)C(=O)O)cc1` [Example 193, N-{[4-(but-2-ynyloxy)phenyl]sulfonyl}-5-methoxy-2-methyl-1-[2-(trifluoromethyl)benzyl]tryptophan]: the half-inhibitory concentration (IC50) was found to be 450 nM.

Take `CC#CCOc1ccc(S(=O)(=O)N[C@@H](Cc2cn(Cc3cccc(C(F)(F)F)c3)c3ccc(OC)cc23)C(=O)O)cc1` [Example 56, N-{[4-(but-2-ynyloxy)phenyl]sulfonyl}-5-methoxy-1-[3-(trifluoromethyl)benzyl]tryptophan]: the half-inhibitory concentration (IC50) amounted to 2070 nM.

Consider `CC#CCOc1ccc(S(=O)(=O)N[C@H](Cc2cn(CC3CCCCC3)c3ccccc23)C(=O)O)cc1` [Example 23, N-{[4-(but-2-ynyloxy)phenyl]sulfonyl}-1-(cyclohexylmethyl)-D-tryptophan], for which the 50% inhibitory concentration (IC50) was 1710 nM.

`CC#CCOc1ccc(S(=O)(=O)N[C@@H](Cc2c(C)n(Cc3ccc(Cl)cc3)c3ccc(OC)cc23)C(=O)O)cc1` [Example 201, N-{[4-(but-2-ynyloxy)phenyl]sulfonyl}-1-(4-chlorobenzyl)-5-methoxy-2-methyltryptophan]: the half-maximal inhibitory concentration (IC50) is 290 nM.

For the molecule `CC#CCOc1ccc(S(=O)(=O)N[C@@H](Cc2cn(CC(C)C)c3ccc(OC)cc23)C(=O)O)cc1` [Example 67, N-{[4-(but-2-ynyloxy)phenyl]sulfonyl}-1-isobutyl-5-methoxytryptophan], the IC50 was determined as 1230 nM.

Still in this experiment, the particulars now being: TACE FRET assay, catalytic domain of recombinant TACE; read-out: TACE IC50.
With `CC#CCOc1ccc(S(=O)(=O)N[C@H](Cc2cn(C(=O)OC(C)(C)C)c3ccccc23)C(=O)O)cc1` [Example 220, 1-(tert-butoxycarbonyl)-N-{[4-(but-2-ynyloxy)phenyl]sulfonyl}-D-tryptophan], the concentration for half-maximal inhibition (IC50) amounted to 3670 nM.

Take `CC#CCOc1ccc(S(=O)(=O)N[C@H](Cc2cn(Cc3cccc(C(F)(F)F)c3)c3ccccc23)C(=O)O)cc1` [Example 40, N-{[4-(but-2-ynyloxy)phenyl]sulfonyl}-1-[3-(trifluoromethyl)benzyl]-D-tryptophan]: the half-maximal inhibitory concentration (IC50) turned out to be 2300 nM.

With `CC#CCOc1ccc(S(=O)(=O)N[C@H](Cc2c[nH]c3ccccc23)C(=O)O)cc1` [Example 1, N-{[4-(but-2-ynyloxy)phenyl]sulfonyl}-D-tryptophan], the IC50 stood at 2530 nM.

The same experiment, now with this note: read-out: TACE Inhibition (%).
A word on the inhibition: it is the drop in the measured response relative to a control, in per cent. For `CC#CCOc1ccc(S(=O)(=O)N[C@@H](Cc2c(C)n(Cc3ccc(C#N)cc3)c3ccc(Cl)cc23)C(=O)O)cc1` [Example 98, N-{[4-(but-2-ynyloxy)phenyl]sulfonyl}-5-chloro-1-(4-cyanobenzyl)-2-methyltryptophan], the inhibition at 1 µM turned out to be 61%.

As to `CC#CCOc1ccc(S(=O)(=O)N[C@@H](Cc2c(C)n(Cc3ccc(C(C)C)cc3)c3ccccc23)C(=O)O)cc1` [Example 157, N-{[4-(but-2-ynyloxy)phenyl]sulfonyl}-1-(4-isopropylbenzyl)-2-methyltryptophan], the inhibition at 1 µM was 34.2%.

On to `CC#CCOc1ccc(S(=O)(=O)N[C@@H](Cc2c(C)n(Cc3ccc(F)cc3)c3ccc(Cl)cc23)C(=O)O)cc1` [Example 95, N-{[4-(but-2-ynyloxy)phenyl]sulfonyl}-5-chloro-1-(4-fluorobenzyl)-2-methyltryptophan], for which the inhibition at 1 µM worked out at 63.6%.

`CC#CCOc1ccc(S(=O)(=O)N[C@@H](Cc2c(C)n(CC)c3ccc(OC)cc23)C(=O)O)cc1` [Example 209, N-{[4-(but-2-ynyloxy)phenyl]sulfonyl}-1-ethyl-5-methoxy-2-methyltryptophan]: the inhibition at 1 µM is 69.8%.

As to `CC#CCOc1ccc(S(=O)(=O)N[C@@H](Cc2cn(Cc3cccc(F)c3)c3ccc(C(=O)O)cc23)C(=O)O)cc1` [Example 116, N-{[4-(but-2-ynyloxy)phenyl]sulfonyl}-5-carboxy-1-(3-fluorobenzyl)tryptophan], the inhibition at 1 µM turned out to be 9.72%.

For the molecule `CC#CCOc1ccc(S(=O)(=O)N[C@@H](Cc2c(C)n(Cc3cccc(C)c3)c3ccc(OC)cc23)C(=O)O)cc1` [Example 187, N-{[4-(but-2-ynyloxy)phenyl]sulfonyl}-5-methoxy-2-methyl-1-(3-methylbenzyl)tryptophan], the inhibition at 1 µM came out at 78.8%.

In the case of `CC#CCOc1ccc(S(=O)(=O)N[C@@H](Cc2cn(Cc3ccc(F)cc3)c3ccc(C(=O)O)cc23)C(=O)O)cc1` [Example 117, N-{[4-(but-2-ynyloxy)phenyl]sulfonyl}-5-carboxy-1-(4-fluorobenzyl)tryptophan], the inhibition at 1 µM was found to be 10.9%.

As to `CC#CCOc1ccc(S(=O)(=O)N[C@@H](Cc2cn(Cc3ccc(Cl)cc3)c3ccc(Cl)cc23)C(=O)O)cc1` [Example 81, N-{[4-(but-2-ynyloxy)phenyl]sulfonyl}-5-chloro-1-(4-chlorobenzyl)tryptophan], the inhibition at 1 µM stood at 13.9%.

With `CC#CCOc1ccc(S(=O)(=O)N[C@@H](Cc2cn(Cc3ccc(F)cc3)c3ccc(OC)cc23)C(=O)O)cc1` [Example 60, N-{[4-(but-2-ynyloxy)phenyl]sulfonyl}-1-(4-fluorobenzyl)-5-methoxytryptophan], the inhibition at 1 µM is 43.5%.

In the case of `CC#CCOc1ccc(S(=O)(=O)N[C@@H](Cc2cn(Cc3ccc(OC)cc3)c3ccc(Cl)cc23)C(=O)O)cc1` [Example 76, N-{[4-(but-2-ynyloxy)phenyl]sulfonyl}-5-chloro-1-(4-methoxybenzyl)tryptophan], the inhibition at 1 µM worked out at 18.3%.

Take `CC#CCOc1ccc(S(=O)(=O)N[C@@H](Cc2cn(Cc3ccc(C)cc3)c3ccc(C(=O)O)cc23)C(=O)O)cc1` [Example 106, N-{[4-(but-2-ynyloxy)phenyl]sulfonyl}-5-carboxy-1-(4-methylbenzyl)tryptophan]: the inhibition at 1 µM is 5.53%.

`CC#CCOc1ccc(S(=O)(=O)N[C@@H](Cc2cn(CCCCC)c3ccc(C(=O)O)cc23)C(=O)O)cc1` [Example 130, N-{[4-(but-2-ynyloxy)phenyl]sulfonyl}-5-carboxy-1-pentyltryptophan]: the inhibition at 1 µM was -5.71%.

In the case of `CC#CCOc1ccc(S(=O)(=O)N[C@@H](Cc2cn(Cc3ccc(C#N)cc3)c3ccc(C(=O)O)cc23)C(=O)O)cc1` [Example 123, N-{[4-(but-2-ynyloxy)phenyl]sulfonyl}-5-carboxy-1-(4-cyanobenzyl)tryptophan], the inhibition at 1 µM is -2.56%.

For `CC#CCOc1ccc(S(=O)(=O)N[C@@H](Cc2cn(CC)c3ccc(C(=O)O)cc23)C(=O)O)cc1` [Example 128, N-{[4-(but-2-ynyloxy)phenyl]sulfonyl}-5-carboxy-1-ethyltryptophan], the inhibition at 1 µM is -0.6%.

Regarding `CC#CCOc1ccc(S(=O)(=O)N[C@@H](Cc2c(C)n(Cc3ccccc3)c3ccc(Cl)cc23)C(=O)O)cc1` [Example 88, 1-benzyl-N-{[4-(but-2-ynyloxy)phenyl]sulfonyl}-5-chloro-2-methyltryptophan], the inhibition at 1 µM was found to be 62.8%.

Consider `CC#CCOc1ccc(S(=O)(=O)N[C@@H](Cc2c(C)n(Cc3ccc(OC(F)(F)F)cc3)c3ccc(Cl)cc23)C(=O)O)cc1` [Example 94, N-{[4-(but-2-ynyloxy)phenyl]sulfonyl}-5-chloro-2-methyl-1-[4-(trifluoromethoxy)benzyl]tryptophan], for which the inhibition at 1 µM is 47.4%.
